In US10844349B2 (Albumedix Ltd., priority 2011, dated 2020):

Key:
[1] = Microtitre plate insoluble aggregate test: time for A350 to increase by 0.2 AU at 65° C.; type: physicochemical; details: cation chlorides 50-500 mM, albumin 10 mg/mL, pH 6.43, 65° C.
Protocol: The microtitre plate was gently rocked to mix the contents of each well, centrifuged to remove any air bubbles and placed in a Biotek Synergy Mx (Potton, UK) plate reader that had been pre-equilibrated and controlled at 65° C. The plate was then read at 350 nm every minute over a total incubation time of 8 hours. Gen5 software (Biotek software for the plate reader version 2.00.18) was used to calculate the time taken for the A350 nm absorbance to increase by 0.2 adsorption units above a base line. The base line was calculated from the mean of the first 5 data points.

[2] = system: Human embryonic stem cells (cell lines SAl21 and SA181); test: Effect of octanoate on stem cell culture (attachment, growth, undifferentiated state over 5 passages; text summary for both cell lines); type: cell-based; details: 8 mM octanoate in 100 g/L albumin
Protocol: The effect of octanoate on stem cell culture was carried out by a contract research organization: Cellartis AB (Gothenburg, Sweden). […] The cell growth over the 5 passages was assessed by monitoring the cell doubling times during consecutive passages in cell production. The doubling times of cultures should be within a range of 28-40 hours, and can be seen as a trend indicator.

Compound	albumin stability (time for A350 to increase by 0.2 AU) [1]	toxicity to stem cells [2]
[Cl-].[Cl-].[Mg+2] [MgCl2]	very good	
CCCCCCCC(=O)O [octanoate]		toxic to stem cells
